According to US20250034498A1, “MICROFLUIDIC DEVICES” (Ecole Polytechnique Federale de Lausanne, priority 2021, published 2025):
“Also recorded” adds a separate entry of the source.

Test system: neural tube organoids
Assay: dorsal-ventral patterning of neural tube organoids at the gradient window of the microfluidic device
Type: cell-based
Settings: for identity of neural tube organoid (PAX3/7 dorsal marker, OLIG2 ventral marker): D6 organoids exposed 18 hours; for spatial patterning of neural tube organoid (PAX3/7 dorsal marker, OLIG2 ventral marker): anti-parallel gradient 1.6 nM BMP4 (L)-500 nM SAG (R), 18 hours
Experimental: In the present example, the organoid of interest was cultured in a Matrigel™ drop for six days then harvested, and the organoid was suspended in Matrigel™ and loaded into the culture chamber 130 and placed at the gradient window 150 via the loading channel 170. A small drop of N2B27 medium was placed in each of the first and second medium chambers or reservoirs 110, 120 for humidification, and the chip was incubated in a 5% CO2 and 37° C. incubator for 5 minutes to allow the Matrigel™ to polymerise. After incubation, the first and second chambers 110, 120 were filled with N2B27 medium supplemented with 1.6 nM of BMP4 as a dorsal morphogen and 500 nM of SAG as a ventral morphogen respectively, and residual air in the device was removed from the first and second air outlets 140-1, 140-2 to allow the morphogen-supplemented media to diffuse across the gradient window 150. The device containing the organoid was incubated in a 5% CO2 and 37° C. incubator for 18 hours.
A neural tube organoid was placed in the gradient window of the device where a dorsal-ventral morphogen gradient has developed, using BMP4 as a dorsal morphogen and SAG as a ventral morphogen. PAX3/7 was used as a marker for dorsal fate neural tube cell and OLIG2 was used as a marker for ventral fate neural tube cell.
As described above, the neural tube organoids from D6 were introduced in the microfluidic device and exposed to different morphogen gradients for 18 hours. All scale bars are 100 μm.

| Molecule | identity of neural tube organoid (PAX3/7 dorsal marker, OLIG2 ventral marker) (N2B27 (L)-500 nM SAG (R)) | spatial patterning of neural tube organoid (PAX3/7 dorsal marker, OLIG2 ventral marker) | identity of neural tube organoid (PAX3/7 dorsal marker, OLIG2 ventral marker) (1.6 nM BMP4 (L)-N2B27 (R)) |
| --- | --- | --- | --- |
| CNC1CCC(N(Cc2cccc(-c3ccncc3)c2)C(=O)c2sc3ccccc3c2Cl)CC1 (stereo not shown) [SAG] | dominant ventral identity expressing OLIG2 | OLIG2 positive cells were biased towards the SAG source; also recorded: OLIG2 biased to right side | – |
| Bone Morphogenetic Protein 4 (protein, UniProt P12644 293-408, looked up, dorsalizing morphogen) Bone morphogenetic protein 4: SPKHHSQRARKKNKNCRRHSLYVDFSDVGWNDWIVAPPGYQAFYCHGDCPFPLADHLNSTNHAIVQTLVNSVNSSIPKACCVPTELSAISMLYLDEYDKVVLKNYQEMVVEGCGCR | – | PAX3/7 positive cells were biased towards the BMP4 source; also recorded: PAX3/7 biased to the left side | dorsal identity expressing PAX3/7 |
